This note sets out measurements from the supplement of paper PMC4862054.

Assay in all cases: normalised response (% of control), CellTiter-Glo; higher = more viable cells (100 = DMSO, 0 = benzethonium chloride kill control)
Details in all cases: incubation time: 72 h

The test system of assay [1] is CAL-120. The method in brief:
(§1)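 In 384-well plates holding compound at 5 concentrations in 10-fold steps over a 10,000-fold range specific to each compound, breast cancer cell lines were seeded as 20 µl suspension and incubated 72 h. CellTox Green fluorescence was measured at 485/520 nm, after which CellTiter-Glo luminescence was measured following 10 min at room temperature. Plate signals were normalised to 0.1 % DMSO (100) and a positive kill control (0), and each value is the normalised signal at a single concentration.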

Assay [2] has as its system HCC1143. The method in brief: as §1
The subject of assay [3] is MDA-MB-453. The method in brief:
as §1

For assay [4], the system named is CAL-51. The method in brief:
as §1

The test system of assay [5] is MDA-MB-436. The method in brief: as §1
For assay [6], the system named is CAL-148. The method in brief: as §1
The test system of assay [7] is CAL-120. As to the method:
(§2)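 DSRT, 72 h incubation, CellTox Green / CellTiter-Glo readout. Signal is normalised to DMSO and benzethonium chloride controls. Value is the normalised response at the highest dose.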
The source holds these as a separate data set.

Assay [8] relates to HCC1143. The protocol: as §2
The source holds these as a separate data set.

In the next assay the test system is MDA-MB-231. As to the method: as §2
Assay [9] relates to MDA-MB-453. The protocol: as §2
This is another data set of the same source.

In a further assay the test system is BT-474. The protocol:
as §2

The test system of a further assay is HDQ-P1. The protocol: as §2
A further assay deals with DU-4475. As to the method: as §2
Another assay has as its system MDA-MB-468. As to the method:
as §2

For the next assay, the system named is MCF-10A. The protocol: as §2
Another assay deals with CAL-85-1. As to the method: as §2
The test system of the next assay is HCC1599. The protocol: as §2
Assay [10] deals with CAL-51. The protocol: as §2
The source holds these as a separate data set.

Assay [11] deals with MDA-MB-436. As to the method:
as §2
The source holds these as a separate data set.

Another assay relates to Hs578T. The protocol:
as §2

Another assay relates to HCC1937. As to the method:
as §2

A further assay concerns BT-549. The protocol:
as §2

In a further assay the test system is MFM-223. As to the method:
as §2

For another assay, the system named is SK-BR-3. As to the method:
as §2

The subject of assay [12] is CAL-148. The protocol: as §2
The source holds these as a separate data set.

`COc1ncc(-c2ccc3nccc(-c4ccnnc4)c3c2)cc1NS(=O)(=O)c1ccc(F)cc1F` (100 nM): the normalised response in the assay on CAL-120 [1] was determined as 45.6%; in the assay on HCC1143 [2], 38.2%; in the assay on MDA-MB-453 [3], 20.1%; in the assay on CAL-51 [4] it was 29.5%; in the assay with MDA-MB-436 [5], 46.7%; in the assay with CAL-148 [6] it was 42.5%.

On to `COc1ncc(-c2ccc3nccc(-c4ccnnc4)c3c2)cc1NS(=O)(=O)c1ccc(F)cc1F` (1000 nM), for which the normalised response in the assay with CAL-120 [7] was 29.9%; in the assay on HCC1143 [8], 23.6%; in the assay with MDA-MB-231, 33.7%; in the assay with MDA-MB-453 [9] it was 7.5%; in the assay on BT-474, 43%; in the assay with HDQ-P1, 12.8%. The normalised response in the assay on DU-4475 was found to be 9.21%; in the assay with MDA-MB-468, 12.7%; with MCF-10A it was 18.8%; in the assay with CAL-85-1 it was 21%; in the assay on HCC1599, 56.4%; with CAL-51 [10] it was 6.49%. Further, the normalised response in the assay with MDA-MB-436 [11] turned out to be 39.4%; in the assay on Hs578T, 16.1%; in the assay with HCC1937, 24%; in the assay with BT-549, 13.9%; in the assay on MFM-223, 33.4%; with SK-BR-3 it was 19.1%. In addition, the normalised response with CAL-148 [12] stood at 6.28%.

On to `C[C@@]1(C(=O)Nc2ccc(F)nc2)CCCN1c1nc(Nc2cc(C3CC3)n[nH]2)c2cccn2n1` (1000 nM), for which the normalised response in the assay on CAL-120 [1] worked out at 59.3%; in the assay with HCC1143 [2], 71.5%; in the assay with MDA-MB-453 [3] it was 115%; in the assay with CAL-51 [4] it was 62.5%; in the assay on MDA-MB-436 [5], 66.9%; in the assay on CAL-148 [6] it was 84.9%.

`C[C@@]1(C(=O)Nc2ccc(F)nc2)CCCN1c1nc(Nc2cc(C3CC3)n[nH]2)c2cccn2n1` (10000 nM): the normalised response was 13.4% in the assay with CAL-120 [7]; 36.1% with HCC1143 [8]; 26.1% in the assay with MDA-MB-231; 127% in the assay on MDA-MB-453 [9]; 29.8% in the assay on BT-474; 8.28% with HDQ-P1. In addition, the normalised response in the assay with DU-4475 came to 31.4%; with MDA-MB-468 it was 20.4%; in the assay on MCF-10A it was 7.53%; in the assay on CAL-85-1, 38.9%; in the assay on HCC1599 it was 54.9%; in the assay on CAL-51 [10] it was 19.9%. For the same compound, the normalised response in the assay on MDA-MB-436 [11] was 40.6%; with Hs578T it was 44.7%; in the assay with HCC1937, 62.6%; in the assay with BT-549, 12.7%; with MFM-223, 25.2%; in the assay on SK-BR-3, 57.4%. Further, in the assay on CAL-148 [12], the normalised response was 56.7%.

Turning to `COc1c(C)cnc(Cn2cnc3c(Cl)nc(N)nc32)c1C` [BIIB021] (1000 nM), the normalised response in the assay on CAL-120 [1] was found to be 53.6%; with HCC1143 [2] it was 38.6%; in the assay on MDA-MB-453 [3], 27.8%; in the assay on CAL-51 [4], 19%; with MDA-MB-436 [5], 42.5%; with CAL-148 [6] it was 23.9%.

As to `COc1c(C)cnc(Cn2cnc3c(Cl)nc(N)nc32)c1C` [BIIB021] (10000 nM), the normalised response in the assay on CAL-120 [7] is 45.4%; in the assay with HCC1143 [8], 31.5%; in the assay with MDA-MB-231 it was 16.7%; with MDA-MB-453 [9], 27.5%; with BT-474, 27.5%; in the assay on HDQ-P1 it was 20.3%. In addition, the normalised response stood at 0.28% with DU-4475; 23.8% in the assay with MDA-MB-468; 13.4% with MCF-10A; 18.6% in the assay with CAL-85-1; 47.4% in the assay on HCC1599; 11.4% with CAL-51 [10]. The normalised response in the assay with MDA-MB-436 [11] stood at 41.7%; in the assay with Hs578T it was 33.7%; in the assay with HCC1937, 29.4%; in the assay on BT-549 it was 38.2%; with MFM-223, 35.1%; with SK-BR-3 it was 34.3%. The compound also had a normalised response in the assay with CAL-148 [12] of 25.1%.

In the case of `CC(C)C[C@H](NC(=O)[C@H](Cc1ccccc1)NC(=O)c1cnccn1)B(O)O` [Bortezomib] (100 nM), the normalised response in the assay on CAL-120 [1] came to 10.4%; with HCC1143 [2], 10.9%; in the assay on MDA-MB-453 [3] it was 29.7%; with CAL-51 [4], 1.1%; with MDA-MB-436 [5], 2.39%; with CAL-148 [6], 22.6%.

With `CC(C)C[C@H](NC(=O)[C@H](Cc1ccccc1)NC(=O)c1cnccn1)B(O)O` [Bortezomib] (1000 nM), the normalised response in the assay with CAL-120 [7] turned out to be 7.39%; in the assay with HCC1143 [8], 5.75%; in the assay with MDA-MB-231, 0.08%; in the assay on MDA-MB-453 [9], 11.5%; in the assay with BT-474 it was 1.31%; with HDQ-P1 it was 0.65%. The normalised response in the assay with DU-4475 came out at 6.46%; in the assay on MDA-MB-468 it was 0.97%; in the assay with MCF-10A, 3.63%; in the assay with CAL-85-1, 0.44%; in the assay on HCC1599, 21.3%; in the assay on CAL-51 [10], 2.86%. In addition, the normalised response in the assay with MDA-MB-436 [11] was 1.47%; with Hs578T, 0.04%; in the assay with HCC1937 it was 2.46%; with BT-549, 2.23%; in the assay on MFM-223, 2.91%; in the assay on SK-BR-3, 1.8%. In addition, the normalised response in the assay on CAL-148 [12] worked out at 0.43%.

With `CS(=O)(=O)OCCCCOS(C)(=O)=O` [Busulfan] (10000 nM), the normalised response in the assay with CAL-120 [1] came to 94.9%; in the assay on HCC1143 [2], 99.1%; in the assay with MDA-MB-453 [3], 115%; in the assay on CAL-51 [4], 109%; in the assay on MDA-MB-436 [5] it was 101%; in the assay on CAL-148 [6], 102%.

Regarding `CS(=O)(=O)OCCCCOS(C)(=O)=O` [Busulfan] (100000 nM), the normalised response with CAL-120 [7] is 101%; in the assay on HCC1143 [8], 104%; with MDA-MB-231 it was 101%; in the assay on MDA-MB-453 [9], 102%; in the assay with BT-474, 89.9%; in the assay with HDQ-P1, 98.4%. The normalised response with DU-4475 was 101%; in the assay on MDA-MB-468, 108%; in the assay with MCF-10A it was 102%; in the assay on CAL-85-1 it was 104%; in the assay with HCC1599, 96%; in the assay on CAL-51 [10] it was 110%. Further, the normalised response is 104% in the assay on MDA-MB-436 [11]; 102% in the assay on Hs578T; 98.8% in the assay with HCC1937; 107% in the assay with BT-549; 107% in the assay with MFM-223; 111% in the assay on SK-BR-3. Further, the normalised response in the assay on CAL-148 [12] was 106%.

As for `C#Cc1cccc(Nc2ncnc3cc(OC)c(OCCCCCCC(=O)NO)cc23)c1` [CUDC-101] (1000 nM), the normalised response in the assay on CAL-120 [1] worked out at 74.2%; in the assay with HCC1143 [2] it was 48.9%; in the assay with MDA-MB-453 [3], 13.5%; in the assay on CAL-51 [4], 68.4%; in the assay on MDA-MB-436 [5], 73.7%; with CAL-148 [6], 60.3%.
